# Data published in paper PMC5694482 (Frontiers in Pharmacology, 2017).
# “And” between values parts separate entries of the source, which are not always exact repeats. Equal entries are not always repeated. “Also recorded” adds a separate entry of the source. Where two headings read alike, the source gives them in different places.
# Tests used:
# [1] = system: mouse asthma model; conditions: cited from earlier work
# [2] = biological target: T1, H3R (Homo sapiens, UniProt Q9Y5N1); conditions: for Ki: H3R pKi ± SEM; for SI H4R/H3R (Ki): selectivity index, ratio of Ki H4R/H3R
# T1 sequence (Q9Y5N1 whole entry, species assumed): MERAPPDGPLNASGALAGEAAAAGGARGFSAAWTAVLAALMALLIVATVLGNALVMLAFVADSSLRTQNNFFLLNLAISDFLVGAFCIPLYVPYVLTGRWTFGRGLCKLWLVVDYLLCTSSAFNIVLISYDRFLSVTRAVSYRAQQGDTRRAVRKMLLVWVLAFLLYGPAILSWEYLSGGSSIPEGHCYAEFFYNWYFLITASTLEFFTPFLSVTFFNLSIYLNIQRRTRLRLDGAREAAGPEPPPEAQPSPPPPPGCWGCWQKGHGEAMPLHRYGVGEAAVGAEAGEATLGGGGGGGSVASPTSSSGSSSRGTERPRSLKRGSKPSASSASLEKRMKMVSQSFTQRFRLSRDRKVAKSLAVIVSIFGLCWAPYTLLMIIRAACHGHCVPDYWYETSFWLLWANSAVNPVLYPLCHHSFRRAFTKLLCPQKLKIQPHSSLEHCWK
# [3] = system: mouse asthma model; test: OVA-induced allergic asthma in mice, cell counts in bronchoalveolar lavage; type: in vivo, Male C57Bl/6 mice; conditions: 3 and 5 mg/kg intraperitoneally 30 min before antigen challenge
# Method: Male C57Bl/6 mice weighing 20–25 g, 6–8 weeks old, from our own animal facilities were housed in a room with a 12 h light–dark cycle with water and food ad libitum. Animal care and research protocols were in accordance with the principles and guidelines adopted by the Brazilian College of Animal Experimentation (COBEA) and this project was approved by the Ethical Committee for Animal Research of the Federal University of São Paulo (CEUA 1666/99).
# Mice (n = 5 per group) were sensitized on days 0 and 7 by an intraperitoneal injection of a mixture containing […] of ovalbumin (OVA; Grade V, Sigma–Aldrich, United States) and 1 mg of Al(OH)3 in PBS (a total volume of 0.2 ml). Mice were challenged by exposure to an aerosol of OVA generated by an ultrasonic nebulizer (ICEL US-800, SP, Brazil) delivering particles of […] diameter at approximately 0.75 cc/min for 20 min at days 14 and 21. The concentration of OVA in the nebulizer was 2.5% w/v in PBS. The control group consisted of animals immunized as previously described and challenged two times with PBS solution. Compounds 1d and 1e were administered intraperitoneally in two different dosages (5 and 3 mg/kg) to the test groups 30 min before the antigen challenge. Sensitized and control groups were used to assess the anti-inflammatory activity ([Corrêa et al., 2017]).
# Mice were euthanized with intraperitoneal ketamine and xylazine (100 and 10 mg/kg, respectively; Agibrands do Brazil, São Paulo, São Paulo, Brazil), 24 h after exposure to the last aerosol challenge. A tracheal cannula was inserted via a mid cervical incision, and the airways were washed twice with 1 ml of phosphate-buffered saline (PBS, pH 7.4 at 4°C).
# The bronchoalveolar lavage fluid was centrifuged at 170 × g for 10 min at 4°C, the supernatant was removed, and the cell pellet was re-suspended in 1 ml of PBS. One volume of a solution containing 0.5% crystal violet dissolved in 30% acetic acid was added to nine volumes of the cell suspension. The total number of cells was determined by counting in a hematocytometer. […]
# [4] = biological target: T2, H4R (Homo sapiens, UniProt Q9H3N8); test: Competition binding assay with [3H]-histamine in HEK293T cells transiently expressing H4R; conditions: for binding to H4R in initial screening (in words): screening format, Supplementary Figure S2
# T2 construct: expressed in transfected cells; host or cells: HEK293T
# T2 sequence (Q9H3N8 whole entry, species assumed): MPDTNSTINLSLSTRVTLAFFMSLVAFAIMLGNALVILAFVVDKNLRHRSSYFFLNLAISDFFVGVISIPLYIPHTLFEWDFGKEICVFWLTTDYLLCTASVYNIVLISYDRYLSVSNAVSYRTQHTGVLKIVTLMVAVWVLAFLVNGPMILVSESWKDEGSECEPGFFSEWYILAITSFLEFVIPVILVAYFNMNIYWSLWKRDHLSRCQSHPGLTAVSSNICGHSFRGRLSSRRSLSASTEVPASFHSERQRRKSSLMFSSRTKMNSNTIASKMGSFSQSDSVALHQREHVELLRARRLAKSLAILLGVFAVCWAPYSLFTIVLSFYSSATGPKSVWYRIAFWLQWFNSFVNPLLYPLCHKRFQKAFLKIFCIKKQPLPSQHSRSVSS
# [5] = biological target: T1, H3R; test: G protein (Gi1) activation BRET assay, H3R, agonist and antagonist mode; type: cell-based; design: expressed in transfected cells; host or cells: HEK293T; conditions: BRET Gi1 biosensor, up to 10,000 nM
# [6] = biological target: T2, H4R; test: G protein (Gi1) activation BRET assay, H4R, agonist and antagonist mode; type: cell-based; conditions: for Gi activation at H4R (agonist mode): BRET Gi1 biosensor, up to 10,000 nM; for block of histamine activity at H4R (antagonist mode): preincubation 30 min at 10,000 nM before histamine
# [7] = displacement of 1.15 nM [3H]-histamine, HEK293T cells, Cheng-Prusoff
# [8] = displacement of 1.15 nM [3H]-histamine, HEK293T cells, Cheng-Prusoff, read-out: H4R pKi ± SEM (converted)
SMILES,"Ki [2, 7]","Ki [4, 8] [µM]",SI H4R/H3R (Ki) [2],also measured
"c1ccc(N2CCN(CC3Cc4ccccc4O3)CC2)cc1 (centres unmarked) [1d, 1-[(2,3-dihydro-1-benzofuran-2-yl)methyl]-4-phenyl-piperazine]",> 10 µM,> 10,,"anti-inflammatory activity in mouse asthma model ([1]; earlier report, ref Corrêa et al., 2017): anti-inflammatory activity only at 5 mg/kg dose; affinity for H3R (in words) [2]: did not show appreciable affinity; effect on total inflammatory cell and eosinophil counts in bronchoalveolar lavage [3]: dose-dependent effect"
"C=CCN1CCN(CC2Cc3ccccc3O2)CC1 (centres unmarked) [1c, 1-allyl-4-[(2,3-dihydro-1-benzofuran-2-yl)methyl]piperazine]",,> 10,>25,"H3R pKi ± SEM [2, 7]: 6.40 ± 0.21"
"c1ccc2c(c1)CC(CN1CCNCC1)O2 (centres unmarked) [1a, 1-[(2,3-Dihydro-1-benzofuran-2-yl)methyl]piperazine]",> 10 µM,> 10,,affinity for H3R (in words) [2]: did not show appreciable affinity
"COc1ccc2c(c1)CC(CN1CCN(C)CC1)O2 (centres unmarked) [1g, 1-methyl-4-[(5-methoxy-2,3-dihydro-1-benzofuran-2-yl)methyl]piperazine]",0.871 µM,> 10,>11,
"CN1CCN(CC2Cc3cc(C(C)(C)C)ccc3O2)CC1 (centres unmarked) [1h, 1-methyl-4-[(5-tert-butyl-2,3-dihydro-1-benzofuran-2-yl)methyl]piperazine]",~0.851 µM and 0.851 µM,> 10,> 11,
"CN1CCN(C(=O)c2cc3cc(Cl)ccc3[nH]2)CC1 [JNJ-7777120, reference compound]",,,,"effect on inflammatory infiltrations in experimental murine asthma model ([1]; ref Neumann et al., 2013): capable of reducing the inflammatory infiltrations"
NC(=NCc1ccc(Cl)cc1)SCCCc1cnc[nH]1 [Clobenpropit],,,,Gi activation at H3R (agonist mode) [5]: unable to trigger Gi activation
"CN1CCN(CC2Cc3ccccc3O2)CC1 (centres unmarked) [1b, 1-[(2,3-dihydro-1-benzofuran-2-yl)methyl]-4-methylpiperazine]",2.69 µM,> 10,,
"Clc1ccc2c(c1)CC(CN1CCN(c3ccccc3)CC1)O2 (centres unmarked) [1i, 1-[(5-chloro-2,3-dihydro-1-benzofuran-2-yl)methyl]-4-phenylpiperazine]",> 10 µM,> 10,,affinity for H3R (in words) [2]: did not show appreciable affinity
"Cc1ccc2c(c1)CC(CN1CCN(C)CC1)O2 (centres unmarked) [1f, 1-methyl-4-[(5-methyl-2,3-dihydro-1-benzofuran-2-yl)methyl]piperazine]",0.708 µM,,14,Gi activation at H4R (agonist mode) [6]: weak agonistic effect in high concentrations; also recorded: moderate agonistic effect; block of histamine activity at H4R (antagonist mode) [6]: only partially blocked histamine activity; also recorded: only partially reduced histamine effect; Ki ([4]; read-out: H4R Ki / binding affinity): ~10 µM; binding to H4R in initial screening (in words) [4]: considerable binding to H4R
"NCCc1c[nH]cn1 [Histamine, reference compound]",,,,Gi activation at H4R (agonist mode) [6]: poor stimulant of Gi; Gi activation at H3R (agonist mode) [5]: strong activation signal
"CN1CCN(CC2Cc3cc(Cl)ccc3O2)CC1 (centres unmarked) [1e, 1-[(5-chloro-2,3-dihydro-1-benzofuran-2-yl)methyl]-4-methylpiperazine]",~0.851 µM and 0.851 µM,0.871,1.1,Gi activation at H4R (agonist mode) [6]: did not trigger Gi activation; block of histamine activity at H4R (antagonist mode) [6]: fully blocked histamine agonistic effect; effect on total inflammatory cell and eosinophil counts in bronchoalveolar lavage [3]: low counts in both doses; also recorded: highly effective at low doses; effect on total inflammatory cell and eosinophil counts in bronchoalveolar lavage ([3]; listed as LINS01007): better anti-inflammatory activity; increase in affinity for H4R by insertion of the chlorine atom ([4]; 1e against the non-substituted molecule): more than 10 fold; binding to H4R in initial screening (in words) [4]: considerable binding to H4R
